Test results reported in patent publication US11572399B2, “Long-acting GIP peptide analogues” (University of Copenhagen, priority 2017, dated 2023).
“And” between values parts separate entries of the source, which are not always exact repeats. Equal values may be shown once. Peptide text beside a SMILES is read from it. * marks the point of attachment. C16 diacid = O=C(O)CCCCCCCCCCCCCCC(=O)*; Palmitoyl = CCCCCCCCCCCCCCCC(=O)*

Legend:
human GIP receptor [1] = target: T1, human GIP receptor (Homo sapiens, UniProt P48546); experiment: cAMP accumulation assay, agonism (ligand alone); format: cell-based; settings: Table 1; for Emax: COS-7, intrinsic cAMP activity, COS-7 cells; for EC50: given as log EC50 (negative sign), read-out: cAMP agonism EC50 (log) (converted)
T1 construct: host or cells: COS-7, transient transfection (calcium phosphate), cDNA in pCMV-Script
T1 sequence (P48546 22-466): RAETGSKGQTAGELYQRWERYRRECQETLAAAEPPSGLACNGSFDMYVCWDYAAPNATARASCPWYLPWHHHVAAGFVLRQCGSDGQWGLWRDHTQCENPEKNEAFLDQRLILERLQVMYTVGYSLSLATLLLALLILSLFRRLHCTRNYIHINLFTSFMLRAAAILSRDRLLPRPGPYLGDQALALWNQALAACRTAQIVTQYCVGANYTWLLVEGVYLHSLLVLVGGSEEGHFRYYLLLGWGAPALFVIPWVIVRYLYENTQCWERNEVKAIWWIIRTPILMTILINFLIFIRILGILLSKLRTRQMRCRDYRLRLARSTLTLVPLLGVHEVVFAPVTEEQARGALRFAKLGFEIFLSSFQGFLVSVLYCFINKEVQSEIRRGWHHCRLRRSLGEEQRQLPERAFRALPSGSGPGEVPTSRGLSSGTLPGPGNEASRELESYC

[2] = Elimination half-life (T1/2) estimated in pigs, subcutaneous, RIA; format: in vivo; settings: pig
Experimental: LYH/LYD strain pigs or mini-pigs were housed in the animal facility at the Faculty of Health and Medical Sciences.
A pig was subcutaneously administered one of the lipidated GIP(3-30)NH2 analogs (compound AT117) (1-10 nmol/kg, total volume 2-6 mL) after which 10-18 blood samples were collected before and up to 57 hours post subcutaneous administration) from a central venous catheter. The catheter was flushed with saline and heparin between samples. Blood was collected into cold EDTA tubes, centrifuged and plasma was kept at −20° C. pending analyses. When experiments are completed, the animals will be killed.
Concentrations of the lipidated GIP(3-30)NH2 or GIP(5-30)NH2 analogues in blood samples from pigs were analysed by RIA. Analogues' immunoreactivity was determined using antiserum Ab95234, Ab95235, Ab95236, a polyclonal in-house antibody raised in rabbits specific for either the mid region of GIP(1-30)NH2 or amidated C-terminus of GIP(3-30)NH2.

human GIP receptor [3] = target: T1, human GIP receptor; experiment: 125I-human GIP competition binding assay, in the presence and absence of 2% HSA; settings: for Fold change HSA (2%)/Casein (0.1%): IC50 (plus HSA)/IC50 (minus HSA); for Ki: absence of HSA; for Binding (+/−HSA) Fold: fold change +HSA/−HSA;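 for all read-outs here: nonspecific binding taken as radioligand bound to untransfected cells, IC50 obtained from nonlinear regression fits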
Experimental: Transient transfection of the COS-7 cells for cAMP accumulation and competition binding was performed using the calcium phosphate precipitation method with the addition of chloroquine^46-47.
Transient transfected COS-7 cells expressing the human GIP receptor were seeded in clear 96-well plates the day after transfection using a number of cells/well that obtained 5-10% specific binding of the added radioactive ligand. The following day, cells were assayed by competition binding for 3 h at 4° C. using 15-40 pM 125 I-human GIP as well as increasing concentrations unlabeled ligand in 50 mM Hepes buffer (pH 7.2) in the presence and absence of 2% HSA. After incubation, the cells were washed twice in ice-cold binding buffer (+/−2% HSA) and lysed using 200 mM NaOH with 1% SDS for 30 min. Nonspecific binding was determined as the binding of radioactive ligand to untransfected cells.
IC50, EC50, and Ki values were determined by nonlinear regression. […] Ki values were based on the formula for one class of binding sites in homologous competition binding studies and the Cheng Prussoffs formula, respectively (DeBlasi et al., 1989). To determine the HSA binding potential, the fold change in affinity (as determined by IC50) was calculated as IC50 (plus HSA)/IC50 (minus HSA).

human GIP receptor [4] = target: T1, human GIP receptor; experiment: cAMP accumulation assay, antagonism of a GIP-mediated cAMP response (50-80% of max); format: cell-based; settings: for IC50: transiently transfected COS-7 cells, Table 1 and text, read-out: cAMP antagonism nM (IC50, antagonistic potency); for Fold change of IC50 versus GIP(5-30)NH2: fold change of IC50 from GIP(5-30)NH2
Experimental: The day after, the cells were washed twice with Hepes buffered saline (HBS) buffer and incubated with HBS and 1 mM 3-isobutyl-1-methylxanthine (IBMX) for 30 min at 37° C. […] The HitHunter™ cAMP XS assay (DiscoveRx) was carried out according to the manufacturer's instructions.

[5] = heterologous competition binding, transiently transfected COS-7 cells expressing the human GIP receptor, read-out: Binding
[6] = heterologous competition binding, transiently transfected COS-7 cells expressing the human GIP receptor, log value of the nM column, read-out: Binding log (converted)

Structure (SMILES)	Emax (human GIP receptor [1])	half-life ([2]; plasma, sc, pigs, subcutaneous 1-10 nmol/kg)	T½ ([2]; subcutaneous)	IC50 (human GIP receptor [3]; 0.1% casein, no HSA, Table 3b, read-out: Binding logIC50 0.1% casein (converted))	IC50 (human GIP receptor [3]; 2% HSA, Table 3b, read-out: Binding logIC50 2% HSA (converted))	IC50 (human GIP receptor [3]; Table 3b, initial data, read-out: Binding IC50)	IC50 (human GIP receptor [3]; binding in presence of 2% HSA, read-out: logIC50 2% HSA (converted))	Binding fold (paired) (human GIP receptor [3]; fold decrease in affinity compared to GIP(3-30)NH2, Table 3b)	IC50 (human GIP receptor [3]; [5])	Fold change in affinity, IC50 (plus HSA)/IC50 (minus HSA) (human GIP receptor [3]; presence vs absence of 2% HSA, proxy for albumin binding)	cAMP - antagonisme fold (paired) (human GIP receptor [4]; fold vs GIP(3-30)NH2, Table 3b)	IC50 (human GIP receptor [4])	Fold change HSA (2%)/Casein (0.1%) (human GIP receptor [3])	Ki (human GIP receptor [3])	Binding (+/−HSA) Fold (human GIP receptor [3])	IC50 (human GIP receptor [3]; [6])	Fold change of IC50 versus GIP(5-30)NH2 (human GIP receptor [4])	EC50 (human GIP receptor [1])
CCCCCCCCCCCCCCCC(=O)NCCCC[C@H](NC(=O)[C@@H](NC(=O)[C@H](CCCCN)NC(=O)[C@H](CC(=O)O)NC(=O)[C@H](CCSC)NC(=O)[C@H](C)NC(=O)[C@@H](NC(=O)[C@H](CO)NC(=O)[C@H](Cc1ccc(O)cc1)NC(=O)[C@H](CC(=O)O)NC(=O)[C@H](CO)NC(=O)[C@@H](NC(=O)[C@H](Cc1ccccc1)NC(=O)[C@@H](NC(=O)CNC(=O)[C@@H](N)CCC(=O)O)[C@@H](C)O)[C@@H](C)CC)[C@@H](C)CC)[C@@H](C)CC)C(=O)N[C@@H](CCC(N)=O)C(=O)N[C@@H](CCC(N)=O)C(=O)N[C@@H](CC(=O)O)C(=O)N[C@@H](Cc1ccccc1)C(=O)N[C@H](C(=O)N[C@@H](CC(N)=O)C(=O)N[C@@H](Cc1c[nH]c2ccccc12)C(=O)N[C@@H](CC(C)C)C(=O)N[C@@H](CC(C)C)C(=O)N[C@@H](C)C(=O)N[C@@H](CCC(N)=O)C(=O)N[C@@H](CCCCN)C(N)=O)C(C)C [AT117, [hGIP(3-30)NH2[H18K]-C16/18]] (H-EGTFISDYSIAMDKIK(Palmitoyl)QQDFVNWLLAQK-NH2; N-terminus assumed)	0%	480 min	8 h	110 nM	1730 nM	292 nM	1730 nM	12 fold	292 nM	15.7 fold	2.3 fold	15 nM	–	–	–	–	–	–
CC[C@H](C)[C@H](NC(=O)[C@H](CO)NC(=O)[C@H](Cc1ccc(O)cc1)NC(=O)[C@H](CC(=O)O)NC(=O)[C@H](CO)NC(=O)[C@@H](NC(=O)[C@H](Cc1ccccc1)NC(=O)[C@@H](N)[C@@H](C)O)[C@@H](C)CC)C(=O)N[C@@H](C)C(=O)N[C@@H](CCSC)C(=O)N[C@@H](CC(=O)O)C(=O)N[C@@H](CCCCN)C(=O)N[C@H](C(=O)N[C@@H](Cc1c[nH]cn1)C(=O)N[C@@H](CCC(N)=O)C(=O)N[C@@H](CCC(N)=O)C(=O)N[C@@H](CC(=O)O)C(=O)N[C@@H](Cc1ccccc1)C(=O)N[C@H](C(=O)N[C@@H](CC(N)=O)C(=O)N[C@@H](Cc1c[nH]c2ccccc12)C(=O)N[C@@H](CCCCNC(=O)CCCCCCCCCCCCCCC(=O)O)C(=O)N[C@@H](CC(C)C)C(=O)N[C@@H](C)C(=O)N[C@@H](CCC(N)=O)C(=O)N[C@@H](CCCCN)C(N)=O)C(C)C)[C@@H](C)CC [AT186, [hGIP(5-30)NH2[L26K]-C16diacid/26]] (H-TFISDYSIAMDKIHQQDFVNWK(C16 diacid)LAQK-NH2; N-terminus assumed)	0%	–	–	–	–	–	–	–	–	–	–	79 nM	3.8	105 nM	7.9	158 nM and 144 nM	2.6	–
CC[C@H](C)[C@H](NC(=O)[C@H](CO)NC(=O)[C@H](Cc1ccc(O)cc1)NC(=O)[C@H](CC(=O)O)NC(=O)[C@H](CO)NC(=O)[C@@H](NC(=O)[C@H](Cc1ccccc1)NC(=O)[C@@H](N)[C@@H](C)O)[C@@H](C)CC)C(=O)N[C@@H](C)C(=O)N[C@@H](CCSC)C(=O)N[C@@H](CC(=O)O)C(=O)N[C@@H](CCCCN)C(=O)N[C@H](C(=O)N[C@@H](Cc1c[nH]cn1)C(=O)N[C@@H](CCC(N)=O)C(=O)N[C@@H](CCC(N)=O)C(=O)N[C@@H](CC(=O)O)C(=O)N[C@@H](Cc1ccccc1)C(=O)N[C@H](C(=O)N[C@@H](CC(N)=O)C(=O)N[C@@H](Cc1c[nH]c2ccccc12)C(=O)N[C@@H](CC(C)C)C(=O)N[C@@H](CCCCNC(=O)CCCCCCCCCCCCCCC(=O)O)C(=O)N[C@@H](C)C(=O)N[C@@H](CCC(N)=O)C(=O)N[C@@H](CCCCN)C(N)=O)C(C)C)[C@@H](C)CC [AT187, [hGIP(5-30)NH2[L27K]-C16diacid/27]] (H-TFISDYSIAMDKIHQQDFVNWLK(C16 diacid)AQK-NH2; N-terminus assumed)	25%	–	–	–	–	–	–	–	26500 nM	–	–	2380 nM	4.7	–	18.2	–	67.6	1000 nM and 2510 nM
CC[C@H](C)[C@H](NC(=O)[C@H](CO)NC(=O)[C@H](Cc1ccc(O)cc1)NC(=O)[C@H](CC(=O)O)NC(=O)[C@H](CO)NC(=O)[C@@H](NC(=O)[C@H](Cc1ccccc1)NC(=O)[C@@H](N)[C@@H](C)O)[C@@H](C)CC)C(=O)N[C@@H](C)C(=O)N[C@@H](CCSC)C(=O)N[C@@H](CC(=O)O)C(=O)N[C@@H](CCCCN)C(=O)N[C@H](C(=O)N[C@@H](Cc1c[nH]cn1)C(=O)N[C@@H](CCC(N)=O)C(=O)N[C@@H](CCC(N)=O)C(=O)N[C@@H](CC(=O)O)C(=O)N[C@@H](Cc1ccccc1)C(=O)N[C@H](C(=O)N[C@@H](CC(N)=O)C(=O)N[C@@H](Cc1c[nH]c2ccccc12)C(=O)N[C@@H](CC(C)C)C(=O)N[C@@H](CC(C)C)C(=O)N[C@@H](CCCCNC(=O)CCCCCCCCCCCCCCC(=O)O)C(=O)N[C@@H](CCC(N)=O)C(=O)N[C@@H](CCCCN)C(N)=O)C(C)C)[C@@H](C)CC [AT188, [hGIP(5-30)NH2[A28K]-C16diacid/28]] (H-TFISDYSIAMDKIHQQDFVNWLLK(C16 diacid)QK-NH2; N-terminus assumed)	10%	–	–	–	–	–	–	–	–	–	–	152 nM	0.0	144 nM	3.2	200 nM and 183 nM	6.8	100 nM and 158 nM
CC[C@H](C)[C@H](NC(=O)[C@H](CO)NC(=O)[C@H](Cc1ccc(O)cc1)NC(=O)[C@H](CC(=O)O)NC(=O)[C@H](CO)NC(=O)[C@@H](NC(=O)[C@H](Cc1ccccc1)NC(=O)[C@@H](N)[C@@H](C)O)[C@@H](C)CC)C(=O)N[C@@H](C)C(=O)N[C@@H](CCSC)C(=O)N[C@@H](CC(=O)O)C(=O)N[C@@H](CCCCN)C(=O)N[C@H](C(=O)N[C@@H](Cc1c[nH]cn1)C(=O)N[C@@H](CCC(N)=O)C(=O)N[C@@H](CCC(N)=O)C(=O)N[C@@H](CC(=O)O)C(=O)N[C@@H](Cc1ccccc1)C(=O)N[C@H](C(=O)N[C@@H](CC(N)=O)C(=O)N[C@@H](Cc1c[nH]c2ccccc12)C(=O)N[C@@H](CC(C)C)C(=O)N[C@@H](CC(C)C)C(=O)N[C@@H](C)C(=O)N[C@@H](CCCCNC(=O)CCCCCCCCCCCCCCC(=O)O)C(=O)N[C@@H](CCCCN)C(N)=O)C(C)C)[C@@H](C)CC [AT189, [hGIP(5-30)NH2[Q29K]-C16diacid/29]] (H-TFISDYSIAMDKIHQQDFVNWLLAK(C16 diacid)K-NH2; N-terminus assumed)	12%	–	–	–	–	–	–	–	–	–	–	79 nM	3.2	–	3.2	126 nM and 118 nM	3.0	100 nM and 79.4 nM
